Consider 29 compounds from patent US20240400555A1 (Initial Therapeutics, Inc., priority 2023, published 2024).

The first experiment relates to MV-4-11 cells. In words: Cell Viability Assay in MV-4-11 Cells. Format: cell-based. The conditions noted are these: Homo sapiens, MV4-11, 72 h, MV-4-11 cells, 72 h, Cell-Titer Glo; read-out: IC50. A digest of the protocol: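 MV-4-11 cells at 7,000/well in IMDM with 10% FBS, exposed to compound for 72 h. Viability by CellTiter-Glo luminescence, normalized to DMSO as 100%, fitted with a four-parameter curve.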
`Cn1cc(-c2ccc(C(=O)N(c3nccc4sc(C#CC(C)(C)O)cc34)[C@@H]3CCCNC3)c(F)c2)nn1` [Example 551, 2-fluoro-N-[2-(3-hydroxy-3-methyl-but-1-ynyl)thieno[3,2-c]pyridin-4-yl]-4-(1-methyltriazol-4-yl)-N-[(3R)-3-piperidyl]benzamide]: the IC50 was found to be 520 nM.

As for `Cn1cc(-c2ccc(C(=O)N(c3nccc4sc(C(N)=O)cc34)[C@@H]3CCCNC3)c(F)c2)nn1` [Example 552, 4-[[2-fluoro-4-(1-methyltriazol-4-yl)benzoyl]-[(3R)-3-piperidyl]amino] thieno [3,2-c] pyridine-2-carboxamide], the IC50 came to 910 nM.

Regarding `Nc1ccc(-c2cc3c(N(C(=O)c4ccc(-n5nnc6cccnc65)cc4F)[C@@H]4CCCNC4)nccc3s2)cn1` [Example 553, N-[2-(6-amino-3-pyridyl)thieno[3,2-c]pyridin-4-yl]-2-fluoro-N-[(3R)-3-piperidyl]-4-(triazolo[4,5-b]pyridin-3-yl)benzamide], the IC50 came to 78 nM.

As to `O=C(c1ccc(-n2nnc3cccnc32)cc1F)N(c1nccc2cc(-c3ccccn3)ccc12)[C@@H]1CCCNC1` [Example 556, (R)-4-(3H-[1,2,3]triazolo[4,5-b]pyridin-3-yl)-2-fluoro-N-(piperidin-3-yl)-N-(6-(pyridin-2-yl)isoquinolin-1-yl) benzamide], the IC50 turned out to be 650 nM.

For `O=C(c1ccc(-n2nnc3cccnc32)cc1F)N(c1nccc2sc(-c3ccc4[nH]ncc4c3)cc12)[C@@H]1CCCNC1` [Example 557, 2-fluoro-N-[2-(1H-indazol-5-yl)thieno[3,2-c]pyridin-4-yl]-N-[(3R)-3-piperidyl]-4-(triazolo[4,5-b]pyridin-3-yl)benzamide], the IC50 was determined as 130 nM.

`Cc1cccc2ccnc(N(C(=O)c3ccc(Nc4nccc(-c5ccncc5)n4)cc3F)[C@@H]3CCCNC3)c12` [Example 558, (R)-2-fluoro-N-(8-methylisoquinolin-1-yl)-N-(piperidin-3-yl)-4-((4-(pyridin-4-yl)pyrimidin-2-yl)amino)benzamide]: the IC50 stood at 11 nM.

Take `Cc1cccc2ccnc(N(C(=O)c3ccc(Nc4nccc(-c5ccccc5)n4)cc3F)[C@@H]3CCCNC3)c12` [Example 559, (R)-2-fluoro-N-(8-methylisoquinolin-1-yl)-4-((4-phenylpyrimidin-2-yl)amino)-N-(piperidin-3-yl)benzamide]: the IC50 was determined as 34 nM.

`O=C(c1ccc(Nc2nccc(N3CCOCC3)n2)cc1F)N(c1nccc2cc(F)ccc12)[C@@H]1CCCNC1` [Example 560, (R)-2-fluoro-N-(6-fluoroisoquinolin-1-yl)-4-((4-morpholinopyrimidin-2-yl)amino)-N-(piperidin-3-yl)benzamide]: the IC50 was 220 nM.

As to `O=C(c1ccc(Nc2nccc(N3CCCCC3)n2)cc1F)N(c1nccc2cc(F)ccc12)[C@@H]1CCCNC1` [Example 561, (R)-2-fluoro-N-(6-fluoroisoquinolin-1-yl)-4-((4-(piperidin-1-yl)pyrimidin-2-yl)amino)-N-(piperidin-3-yl)benzamide], the IC50 came out at 1200 nM.

`CN1CCN(c2ccnc(Nc3ccc(C(=O)N(c4nccc5cc(F)ccc45)[C@@H]4CCCNC4)c(F)c3)n2)CC1` [Example 562, (R)-2-fluoro-N-(6-fluoroisoquinolin-1-yl)-4-((4-(4-methylpiperazin-1-yl)pyrimidin-2-yl)amino)-N-(piperidin-3-yl)benzamide]: the IC50 worked out at 340 nM.

Regarding `Cn1cc(-c2ccc(C(=O)N(c3nccc4sc(C(=O)c5cccnc5)cc34)[C@@H]3CCCNC3)c(F)c2)nn1` [Example 563], the IC50 amounted to 340 nM.

`Cc1cc(F)cc2ccnc(N(C(=O)c3ccc(Nc4ncccn4)cc3F)[C@@H]3CCCNC3)c12` [Example 564, (R)-2-fluoro-N-(6-fluoro-8-methylisoquinolin-1-yl)-N-(piperidin-3-yl)-4-(pyrimidin-2-ylamino)benzamide]: the IC50 is 14 nM.

With `Nc1c(F)cc(-c2cc3c(N(C(=O)c4ccc(-n5nnc6cccnc65)cc4F)[C@@H]4CCCNC4)nccc3s2)cc1F` [Example 565, N-[2-(4-amino-3,5-difluoro-phenyl)thieno[3,2-c]pyridin-4-yl]-2-fluoro-N-[(3R)-3-piperidyl]-4-(triazolo[4,5-b]pyridin-3-yl)benzamide], the IC50 was determined as 230 nM.

On to `O=C(c1ccc(-n2nnc3cccnc32)cc1F)N(c1nccc2sc(-c3ccnc(F)c3)cc12)[C@@H]1CCCNC1` [Example 566, 2-fluoro-N-[2-(2-fluoro-4-pyridyl)thieno [3,2-c]pyridin-4-yl]-N-[(3R)-3-piperidyl]-4-(triazolo [4,5-b]pyridin-3-yl) benzamide], for which the IC50 was 240 nM.

`NC(=O)c1ccc(-c2cc3c(N(C(=O)c4ccc(-n5nnc6cccnc65)cc4F)[C@@H]4CCCNC4)nccc3s2)cc1F` [Example 567, 2-fluoro-4-[4-[[2-fluoro-4-(triazolo[4,5-b]pyridin-3-yl)benzoyl]-[(3R)-3-piperidyl]amino]thieno[3,2-c]pyridin-2-yl]benzamide]: the IC50 was found to be 230 nM.

With `NC(=O)c1cc(-c2cc3c(N(C(=O)c4ccc(-n5nnc6cccnc65)cc4F)[C@@H]4CCCNC4)nccc3s2)cs1` [Example 568, 4-[4-[[2-fluoro-4-(triazolo[4,5-b]pyridin-3-yl)benzoyl]-[(3R)-3-piperidyl]amino]thieno[3,2-c]pyridin-2-yl]thiophene-2-carboxamide], the IC50 worked out at 89 nM.

As to `O=C(c1ccc(-n2nnc3cccnc32)cc1F)N(c1nccc2sc(-c3ccc(B(O)O)cc3)cc12)[C@@H]1CCCNC1` [Example 569, [4-[4-[[2-fluoro-4-(triazolo[4,5-b]pyridin-3-yl)benzoyl]-[(3R)-3-piperidyl]amino]thieno[3,2-c]pyridin-2-yl]phenyl]boronic acid], the IC50 is 570 nM.

As for `NC(=O)Cc1ccc(-c2cc3c(N(C(=O)c4ccc(-n5nnc6cccnc65)cc4F)[C@@H]4CCCNC4)nccc3s2)cc1` [Example 570, N-[2-[4-(2-amino-2-oxo-ethyl)phenyl]thieno[3,2-c]pyridin-4-yl]-2-fluoro-N-[(3R)-3-piperidyl]-4-(triazolo[4,5-b]pyridin-3-yl)benzamide], the IC50 stood at 110 nM.

With `Cc1cc(-c2cc3c(N(C(=O)c4ccc(-n5nnc6cccnc65)cc4F)[C@@H]4CCCNC4)nccc3s2)cc(C)n1` [Example 571, N-[2-(2,6-dimethyl-4-pyridyl)thieno[3,2-c]pyridin-4-yl]-2-fluoro-N-[(3R)-3-piperidyl]-4-(triazolo[4,5-b]pyridin-3-yl)benzamide], the IC50 is 63 nM.

For the compound `Cc1cc(-c2cc3c(N(C(=O)c4ccc(-n5nnc6cccnc65)cc4F)[C@@H]4CCCNC4)nccc3s2)ccc1C(N)=O` [Example 572, 4-[4-[[2-fluoro-4-(triazolo [4,5-b]pyridin-3-yl)benzoyl]-[(3R)-3-piperidyl]amino]thieno [3,2-c]pyridin-2-yl]-2-methyl-benzamide], the IC50 was 89 nM.

Consider `NC(=O)c1ccc(-c2cc3c(N(C(=O)c4ccc(-n5nnc6cccnc65)cc4F)[C@@H]4CCCNC4)nccc3s2)cc1C(F)(F)F` [Example 573, 4-[4-[[2-fluoro-4-(triazolo [4,5-b]pyridin-3-yl)benzoyl]-[(3R)-3-piperidyl]amino]thieno [3,2-c]pyridin-2-yl]-2-(trifluoromethyl) benzamide], for which the IC50 worked out at 230 nM.

With `Cc1cnc(-c2ccc3c(N(C(=O)c4ccc(-n5nnc6cccnc65)cc4F)[C@@H]4CCCNC4)nccc3c2)s1` [Example 574, (R)-4-(3H-[1,2,3]triazolo[4,5-b]pyridin-3-yl)-2-fluoro-N-(6-(5-methylthiazol-2-yl)isoquinolin-1-yl)-N-(piperidin-3-yl)benzamide], the IC50 turned out to be 390 nM.

Regarding `Cc1nc(-c2ccc3c(N(C(=O)c4ccc(-n5nnc6cccnc65)cc4F)[C@@H]4CCCNC4)nccc3c2)cs1` [Example 575, (R)-4-(3H-[1,2,3]triazolo[4,5-b]pyridin-3-yl)-2-fluoro-N-(6-(2-methylthiazol-4-yl)isoquinolin-1-yl)-N-(piperidin-3-yl)benzamide], the IC50 stood at 150 nM.

Turning to `Cc1nnc(-c2ccc3c(N(C(=O)c4ccc(-n5nnc6cccnc65)cc4F)[C@@H]4CCCNC4)nccc3c2)s1` [Example 576, (R)-4-(3H-[1,2,3]triazolo[4,5-b]pyridin-3-yl)-2-fluoro-N-(6-(5-methyl-1,3,4-thiadiazol-2-yl)isoquinolin-1-yl)-N-(piperidin-3-yl)benzamide], the IC50 worked out at 430 nM.

On to `Cc1cccc2ccnc(N(C(=O)c3ccc(Nc4nccc(N5CCCCC5)n4)cc3F)[C@@H]3CCCNC3)c12` [Example 578, (R)-2-fluoro-N-(8-methylisoquinolin-1-yl)-4-((4-(piperidin-1-yl)pyrimidin-2-yl)amino)-N-(piperidin-3-yl)benzamide], for which the half-maximal inhibitory concentration (IC50) was determined as 45 nM.

`Cn1cc(-c2ccc(C(=O)N(c3nccc4cc(-c5ccc(F)cc5)ccc34)[C@@H]3CCCNC3)c(F)c2)nn1` [Example 580, (R)-2-fluoro-N-(6-(4-fluorophenyl)isoquinolin-1-yl)-4-(1-methyl-1H-1,2,3-triazol-4-yl)-N-(piperidin-3-yl)benzamide]: the IC50 was found to be 430 nM.

Consider `Cn1cc(-c2ccc(C(=O)N(c3nccc4cc(-c5ccccn5)ccc34)[C@@H]3CCCNC3)c(F)c2)nn1` [Example 581, (R)-2-fluoro-4-(1-methyl-1H-1,2,3-triazol-4-yl)-N-(piperidin-3-yl)-N-(6-(pyridin-2-yl)isoquinolin-1-yl)benzamide], for which the IC50 is 340 nM.

Still in this experiment, the particulars now being: MV-4-11 cells, 72 h, Cell-Titer Glo; read-out: IC50.
Consider `Cn1cc(-c2ccc(C(=O)N(c3nccc4cc(-c5ccccc5)ccc34)[C@@H]3CCCNC3)c(F)c2)nn1` [Example 577, (R)-2-fluoro-4-(1-methyl-1H-1,2,3-triazol-4-yl)-N-(6-phenylisoquinolin-1-yl)-N-(piperidin-3-yl)benzamide], for which the IC50 came to 76 nM.

In the case of `Cn1cc(-c2ccc(C(=O)N(c3nccc4cc(-c5ccccc5)ccc34)[C@@H]3CCCNC3)c(F)c2)nn1` [Example 579, (R)-2-fluoro-4-(1-methyl-1H-1,2,3-triazol-4-yl)-N-(6-phenylisoquinolin-1-yl)-N-(piperidin-3-yl)benzamide], the IC50 was determined as 220 nM.
